Measured values as given in patent US20230119539A1, “TRACELESS LINKERS AND PROTEIN-CONJUGATES THEREOF” (Regeneron Pharmaceuticals, Inc., priority 2019, published 2023).

Assays:
[1] = Solubility of quenched linker-payloads; settings: Table 3c, linker-payloads quenched with taurine-PEG4-azide or CD-N3
[2] = Solubility of linker-payloads and quenched linker-payloads; assay type: physicochemical; settings: quenched linker-payloads, Table 6a
Description: The quenched linker-payloads were water soluble and used for the pH stability test.

[3] = pH stability of quenched linker-payloads in buffers (LCMS); assay type: physicochemical; settings: for percentage of the remaining compound: RT
Method: To a solution of compound (payloads or quenched-linker-payloads) in DMSO (0.2-1.0 mg/mL) was added corresponding PBS buffer (V(buffer)/V(DMSO)=5) to give test samples (pH 3, 4, 5, 6, 7.4, and 8.5, or other special pH). The test samples were incubated at RT for at least 3 days and monitored by LCMS (i.e., at 1 hr, 2 hr, 4 hr, 8 hr, and 1 day, 2 day, 3 day, 4 day, 5 day, 6 day, 7 day, 8 day, 9 day, and 21 day time points). Initial concentrations of the samples were 0.2 mg/mL (DMSO/buffer, v/v=1/5). […] The payloads and quenched linker-payloads were mostly stable at pH >5.0, 6.0, 7.4 and 8.5 after 3 days. In more acidic conditions, such as pH 1.0, the payloads or linker-payloads were easily cleaved to release D*-OH.

CCCC1O[C@@H]2C[C@H]3[C@@H]4CCC5=CC(=O)C=C[C@]5(C)[C@H]4[C@@H](O)C[C@]3(C)[C@]2(C(=O)COCN(C)C(=O)CNC(=O)OCc2ccc(NC(=O)[C@H](CCCNC(N)=O)NC(=O)[C@@H](NC(=O)CCOCCOCCOCCOCCNC(=O)CCC(=O)N3Cc4ccccc4-c4c(nnn4CCOCCOCCOCCOCCC(=O)NCCS(=O)(=O)O)-c4ccccc43)C(C)C)cc2)O1 (some centres unmarked) [Q1L1-PII-8]
96%: percentage of the remaining compound ([3]; pH 4.0, 7 Day) | LP: percentage of linker-payloads remaining ([3]; pH 4.0, day 7)
0%: P: percentage of budesonide released from the linker-payloads ([3]; pH 4.0, day 1) | P: percentage of budesonide released from the linker-payloads ([3]; pH 4.0, day 2) | P: percentage of budesonide released from the linker-payloads ([3]; pH 5.0, day 1) | P: percentage of budesonide released from the linker-payloads ([3]; pH 5.0, day 2) | P: percentage of budesonide released from the linker-payloads ([3]; pH 5.0, day 7) | P: percentage of budesonide released from the linker-payloads ([3]; pH 7.4, day 1) | P: percentage of budesonide released from the linker-payloads ([3]; pH 7.4, day 2) | P: percentage of budesonide released from the linker-payloads ([3]; pH 7.4, day 7)
3%: P: percentage of budesonide released from the linker-payloads ([3]; pH 4.0, day 7)
65%: percentage of the remaining compound ([3]; pH 3.0, 7 Day)
>1000 µg/mL: Solubility [1] | Solubility [2]
99%: percentage of the remaining compound ([3]; pH 4.0, 2 Day) | percentage of the remaining compound ([3]; pH 4.0, 3 Day) | LP: percentage of linker-payloads remaining ([3]; pH 4.0, day 2)
93%: percentage of the remaining compound ([3]; pH 3.0, 1 Day)
98%: percentage of the remaining compound ([3]; pH 4.0, 4 Day)
100%: percentage of the remaining compound ([3]; DMSO, 1 Day) | percentage of the remaining compound ([3]; DMSO, 2 Day) | percentage of the remaining compound ([3]; DMSO, 3 Day) | percentage of the remaining compound ([3]; DMSO, 4 Day) | percentage of the remaining compound ([3]; DMSO, 7 Day) | percentage of the remaining compound ([3]; DMSO, 1 hr) | percentage of the remaining compound ([3]; DMSO, 4 hr) | percentage of the remaining compound ([3]; pH 3.0, 1 hr) | percentage of the remaining compound ([3]; pH 3.0, 4 hr) | percentage of the remaining compound ([3]; pH 4.0, 1 Day) | percentage of the remaining compound ([3]; pH 4.0, 1 hr) | percentage of the remaining compound ([3]; pH 4.0, 4 hr) | LP: percentage of linker-payloads remaining ([3]; pH 4.0, day 1) | percentage of the remaining compound ([3]; pH 5.0, 1 Day) | percentage of the remaining compound ([3]; pH 5.0, 2 Day) | percentage of the remaining compound ([3]; pH 5.0, 3 Day) | percentage of the remaining compound ([3]; pH 5.0, 4 Day) | percentage of the remaining compound ([3]; pH 5.0, 7 Day) | percentage of the remaining compound ([3]; pH 5.0, 1 hr) | percentage of the remaining compound ([3]; pH 5.0, 4 hr) | LP: percentage of linker-payloads remaining ([3]; pH 5.0, day 1) | LP: percentage of linker-payloads remaining ([3]; pH 5.0, day 2) | LP: percentage of linker-payloads remaining ([3]; pH 5.0, day 7) | percentage of the remaining compound ([3]; pH 7.4, 1 Day) | percentage of the remaining compound ([3]; pH 7.4, 2 Day) | percentage of the remaining compound ([3]; pH 7.4, 3 Day) | percentage of the remaining compound ([3]; pH 7.4, 4 Day) | percentage of the remaining compound ([3]; pH 7.4, 7 Day) | percentage of the remaining compound ([3]; pH 7.4, 1 hr) | percentage of the remaining compound ([3]; pH 7.4, 4 hr) | LP: percentage of linker-payloads remaining ([3]; pH 7.4, day 1) | LP: percentage of linker-payloads remaining ([3]; pH 7.4, day 2) | LP: percentage of linker-payloads remaining ([3]; pH 7.4, day 7)
79%: percentage of the remaining compound ([3]; pH 3.0, 4 Day)
89%: percentage of the remaining compound ([3]; pH 3.0, 2 Day)
84%: percentage of the remaining compound ([3]; pH 3.0, 3 Day)

CC(C)[C@H](NC(=O)CCOCCOCCOCCOCCNC(=O)CCC(=O)N1Cc2ccccc2-c2c(nnn2CCOCCOCCOCCOCCC(=O)NCCS(=O)(=O)O)-c2ccccc21)C(=O)N[C@@H](CCCNC(N)=O)C(=O)Nc1ccc(COC(=O)NCC(=O)NCOCC(=O)[C@@]2(O)[C@H](C)C[C@H]3[C@@H]4CCC5=CC(=O)C=C[C@]5(C)[C@@]4(F)[C@@H](O)C[C@@]32C)cc1 [Q1L1-PI]
100%: percentage of the remaining compound ([3]; DMSO, 1 Day) | percentage of the remaining compound ([3]; DMSO, 2 Day) | percentage of the remaining compound ([3]; DMSO, 3 Day) | percentage of the remaining compound ([3]; DMSO, 4 Day) | percentage of the remaining compound ([3]; DMSO, 7 Day) | percentage of the remaining compound ([3]; DMSO, 1 hr) | percentage of the remaining compound ([3]; DMSO, 4 hr) | percentage of the remaining compound ([3]; pH 3.0, 1 Day) | percentage of the remaining compound ([3]; pH 3.0, 2 Day) | percentage of the remaining compound ([3]; pH 3.0, 1 hr) | percentage of the remaining compound ([3]; pH 3.0, 4 hr) | percentage of the remaining compound ([3]; pH 4.0, 1 Day) | percentage of the remaining compound ([3]; pH 4.0, 2 Day) | percentage of the remaining compound ([3]; pH 4.0, 3 Day) | percentage of the remaining compound ([3]; pH 4.0, 4 Day) | percentage of the remaining compound ([3]; pH 4.0, 7 Day) | percentage of the remaining compound ([3]; pH 4.0, 1 hr) | percentage of the remaining compound ([3]; pH 4.0, 4 hr) | percentage of the remaining compound ([3]; pH 5.0, 1 Day) | percentage of the remaining compound ([3]; pH 5.0, 2 Day) | percentage of the remaining compound ([3]; pH 5.0, 3 Day) | percentage of the remaining compound ([3]; pH 5.0, 4 Day) | percentage of the remaining compound ([3]; pH 5.0, 7 Day) | percentage of the remaining compound ([3]; pH 5.0, 1 hr) | percentage of the remaining compound ([3]; pH 5.0, 4 hr) | percentage of the remaining compound ([3]; pH 7.4, 1 Day) | percentage of the remaining compound ([3]; pH 7.4, 2 Day) | percentage of the remaining compound ([3]; pH 7.4, 3 Day) | percentage of the remaining compound ([3]; pH 7.4, 4 Day) | percentage of the remaining compound ([3]; pH 7.4, 7 Day) | percentage of the remaining compound ([3]; pH 7.4, 1 hr) | percentage of the remaining compound ([3]; pH 7.4, 4 hr)
> 1000 µg/mL: Solubility ([2]; water, read-out: Solubility)
91%: percentage of the remaining compound ([3]; pH 3.0, 7 Day)
95%: percentage of the remaining compound ([3]; pH 3.0, 4 Day)
96%: percentage of the remaining compound ([3]; pH 3.0, 3 Day)

CCCC1O[C@@H]2C[C@H]3[C@@H]4CCC5=CC(=O)C=C[C@]5(C)[C@H]4[C@@H](O)C[C@]3(C)[C@]2(C(=O)COC2CCCN2C(=O)CNC(=O)CCOCCOCCOCCOCCNC(=O)CCC(=O)N2Cc3ccccc3-c3c(nnn3CC3OC4OC5C(CO)OC(OC6C(CO)OC(OC7C(CO)OC(OC8C(CO)OC(OC9C(CO)OC(OC3C(O)C4O)C(O)C9O)C(O)C8O)C(O)C7O)C(O)C6O)C(O)C5O)-c3ccccc32)O1 (some centres unmarked) [Q2L6-PII-9]
8%: percentage of the remaining compound ([3]; pH 3.0, 4 hr) | percentage of the remaining compound ([3]; pH 4.0, 2 Day)
0%: percentage of the remaining compound ([3]; pH 3.0, 1 Day) | percentage of the remaining compound ([3]; pH 4.0, 4 Day)
100%: percentage of the remaining compound ([3]; DMSO, 1 Day) | percentage of the remaining compound ([3]; DMSO, 2 Day) | percentage of the remaining compound ([3]; DMSO, 3 Day) | percentage of the remaining compound ([3]; DMSO, 4 Day) | percentage of the remaining compound ([3]; DMSO, 4 hr) | percentage of the remaining compound ([3]; pH 5.0, 4 hr) | percentage of the remaining compound ([3]; pH 7.4, 1 Day) | percentage of the remaining compound ([3]; pH 7.4, 2 Day) | percentage of the remaining compound ([3]; pH 7.4, 3 Day) | percentage of the remaining compound ([3]; pH 7.4, 4 Day) | percentage of the remaining compound ([3]; pH 7.4, 7 Day) | percentage of the remaining compound ([3]; pH 7.4, 1 hr) | percentage of the remaining compound ([3]; pH 7.4, 4 hr)
92%: percentage of the remaining compound ([3]; DMSO, 7 Day) | percentage of the remaining compound ([3]; pH 5.0, 1 Day)
69%: percentage of the remaining compound ([3]; pH 5.0, 4 Day)
71%: percentage of the remaining compound ([3]; pH 4.0, 4 hr)
2%: percentage of the remaining compound ([3]; pH 4.0, 3 Day)
>1000 µg/mL: Solubility [1] | Solubility [2]
66%: percentage of the remaining compound ([3]; pH 5.0, 7 Day)
82%: percentage of the remaining compound ([3]; pH 5.0, 3 Day)
86%: percentage of the remaining compound ([3]; pH 5.0, 2 Day)
25%: percentage of the remaining compound ([3]; pH 4.0, 1 Day)
